According to patent publication US20030144308A1, “Fructose 1,6-bisphosphatase inhibitors” (priority 2001, published 2003):
pIC50: −log10 of the molar value. Values belong to the compound of their own block, whether it stands above or below them.

How the values were obtained:
[1] = molecular target: recombinant human F16BPase (Homo sapiens, UniProt P09467); settings: read-out: IC50 against the human enzyme; allosteric inhibitor; 40 minutes at room temperature without preincubation of compound with enzyme
Description: Fructose-1,6-bisphosphatase Enzyme Assay: Fructose-1,6-bisphosphatase (F16BP) is assayed by measuring its ability to hydrolyze inorganic phosphate from fructose-1,6-bisphosphate using a modification of a reported method (Biochem. J. 1994, 298, 395). […] The final solution consists of 50 mM HEPES (catalog #H7523, Sigma Chemical Company, PO Box 14508, St. Louis, Mo. 63178) pH=7.2, 100 mM KCl (Sigma catalog #P3911), 2 mM MgCI2 (Sigma catalog #M9272), 2 mM EGTA (Sigma catalog #E0396), 1 mM DTT (Sigma atalog #D5545), and 500 1 μM fructose-1,6-bisphosphate (Sigma catalog #752-1). The solution is incubated for 40 minutes at room temperature without preincubation of compound with enzyme. The phosphate released by the enzyme is measured spectrophotometrically using a Titertek Multiscann MCC 340 (Titertek, 330 Wynn Drive, Huntsville, Ala. 35805) at 620 nm, after allowing the phosphate to form a complex for 10 minutes after the addition of 150 μL of ammonium molybdate/malachite green (AM/MG) solution. To prepare the AM/MG solution, one volume of 4.2% ammonium molybdate (w/v, Sigma catalog #A7302) in 4 molar aqueous hydrochloric acid is added to three volumes of 0.045% malachite green (w/v, Sigma catalog #M9636) and 0.01% Tween®-20 (v/v, Sigma catalog #P1379) in water. […]

[2] = test system: another carcinoma which does not express the EGF receptor; settings: mouse, in vivo; cited from earlier work
[3] = test system: transplanted human mammary carcinoma which expresses epidermal growth factor receptor tyrosine kinase (EGFR); settings: athymic nude mice; cited from earlier work

Sequence of recombinant human F16BPase (P09467 whole entry): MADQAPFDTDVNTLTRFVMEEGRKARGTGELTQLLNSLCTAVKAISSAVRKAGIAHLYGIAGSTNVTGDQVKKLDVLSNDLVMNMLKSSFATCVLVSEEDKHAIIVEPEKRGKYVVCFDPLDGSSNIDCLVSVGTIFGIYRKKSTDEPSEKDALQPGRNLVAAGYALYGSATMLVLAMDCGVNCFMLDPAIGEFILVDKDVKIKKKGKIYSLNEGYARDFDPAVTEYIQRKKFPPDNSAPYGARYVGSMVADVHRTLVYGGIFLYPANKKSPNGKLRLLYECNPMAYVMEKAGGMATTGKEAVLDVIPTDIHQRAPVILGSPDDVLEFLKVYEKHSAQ

- melting point: 252 to 256 °C
SMILES: CCOc1cc2nc(CCl)nc(Nc3cccc(-c4csc(C)n4)c3)c2cc1OCC.Cl

- pIC50 [1]: 6.10
SMILES: Nc1ncnc2c1ncn2[C@@H]1O[C@H](COP(=O)(O)O)[C@@H](O)[C@H]1O [AMP, adenosine 5′-monophosphate]

SMILES: O=CN/C=C/c1cc(O)ccc1O [erbstatin]
- growth of carcinoma which does not express the EGF receptor [2]: without effect on the growth
- growth of transplanted human mammary carcinoma expressing EGFR [3]: selectively attenuates the growth
